From EP1614683B1, “Indazole compounds and pharmaceutical compositions for inhibiting protein kinases, and methods for their use” (priority 1999, dated 2001)
Like-named read-outs stand apart in the source and are kept apart here.

[1] = mouse, in vivo, po, 10 mg/kg, pH 2.3
[2] = mouse, in vivo, ip, 25 mg/kg, pH 2.3
[3] = mouse, in vivo, po, 50 mg/kg, 7 h, pH 2.3
[4] = mouse, in vivo, po, 50 mg/kg, pH 2.3
[5] = mouse, in vivo, ip, 25 mg/kg, 7 h, pH 2.3
[6] = mouse, in vivo, po, 25 mg/kg, pH 2.3
[7] = mouse, in vivo, po, 25 mg/kg, 7 h, pH 2.3
[8] = PO, 25 mg/kg, vehicle PEG400:H2O pH 2.3 30:70

| SMILES | AUCleast [2] [ng·h/mL] | T1/2 [2] [h] | AUCleast [4] [ng·h/mL] | T1/2 [4] [h] | AUCleast [6] | T1/2 [6] [h] | further results |
| --- | --- | --- | --- | --- | --- | --- | --- |
| Cc1cccc(C(=O)Nc2cccc(Oc3ccc4c(/C=C/c5ccccc5)n[nH]c4c3)c2)c1 [5 (b)] |  |  |  |  |  |  | AUCleast [1]: 61 ng·h/mL; T1/2 [1]: 3.1 h |
| O=C(Nc1cccc(Cl)c1)c1ccccc1Sc1ccc2c(/C=C/c3ccccn3)n[nH]c2c1 [33 (d)] | 5080 | 1.6 | 4744 | 0.9 |  |  | Cmin (7 hr conc.) [3]: 8 ng/mL |
| O=C(NC1CC1)c1ccccc1Sc1ccc2c(/C=C/c3ccccn3)n[nH]c2c1 [33 (e)] | 14323 | 1.0 | 13290 | 0.7 |  |  |  |
| O=C(NCC(F)(F)F)c1ccccc1Sc1ccc2c(/C=C/c3ccccn3)n[nH]c2c1 [33 (f)] | 1887 | 2.4 | 1436 | 0.7 |  |  | Cmin (7 hr conc.) [5]: 6 ng/mL; Cmin (7 hr conc.) [3]: 3 ng/mL |
| COc1cccc(CNC(=O)c2ccccc2Sc2ccc3c(/C=C/c4ccccn4)n[nH]c3c2)c1 [35 (aa)] |  |  |  |  | 4036 ng·h/mL | 2.1 |  |
| CC(C)NC(=O)c1ccccc1Sc1ccc2c(/C=C/c3ccccn3)n[nH]c2c1 [35 (b)] | 2840 | 0.8 | 4048 | 0.8 |  |  |  |
| O=C(NC1CCC1)c1ccccc1Sc1ccc2c(/C=C/c3ccccn3)n[nH]c2c1 [35 (c)] | 9408 | 3.2 | 4744 | 4.9 |  |  |  |
| C#CCNC(=O)c1ccccc1Sc1ccc2c(/C=C/c3ccccn3)n[nH]c2c1 [35 (cc)] | 2223 | 1.4 | 1718 | 0.9 |  |  | Cmin (7 hr conc.) [5]: 6 ng/mL; Cmin (7 hr conc.) [3]: 5 ng/mL |
| CCONC(=O)c1ccccc1Sc1ccc2c(/C=C/c3ccccn3)n[nH]c2c1 [35 (dd)] | > 23046 | 4.1 |  |  | > 6521 ng·h/mL | 1.4 | AUCleast (mouse, in vivo, po, 25 mg/kg): 1360 ng·h/mL; T1/2 (mouse, in vivo, po, 25 mg/kg): 2.0 h |
| Cn1cccc1C(=O)NNC(=O)c1ccccc1Sc1ccc2c(/C=C/c3ccccn3)n[nH]c2c1 [35 (e)] | 2409 | 1.8 | 1503 | 0.9 |  |  | Cmin (7 hr conc.) [3]: 6 ng/mL |
| C=C(C)CNC(=O)c1ccccc1Sc1ccc2c(/C=C/c3ccccn3)n[nH]c2c1 [35 (ee)] | 546 | 1.5 |  |  | 157 ng·h/mL | 14.6 | Cmin (7 hr conc.) [5]: 2 ng/mL; Cmin (7 hr conc.) [7]: 9 ng/mL |
| O=C(NCc1ccccc1F)c1ccccc1Sc1ccc2c(/C=C/c3ccccn3)n[nH]c2c1 [35 (f)] | 397 | 3.8 | 358 | 3.6 |  |  |  |
| O=C(NCc1cccc(F)c1)c1ccccc1Sc1ccc2c(/C=C/c3ccccn3)n[nH]c2c1 [35 (ff)] | > 6301 |  |  |  | Blq |  | Cmin (7 hr conc.) [6]: blq |
| COc1ccc(CNC(=O)c2ccccc2Sc2ccc3c(/C=C/c4ccccn4)n[nH]c3c2)cc1 [35 (g)] |  |  |  |  | 231 ng·h/mL | 16.1 |  |
| Cc1ccc(CNC(=O)c2ccccc2Sc2ccc3c(/C=C/c4ccccn4)n[nH]c3c2)o1 [35 (h)] | 59 | 1.5 | 26 |  |  |  | Cmin (7 hr conc.) [5]: 1 ng/mL; Cmin (7 hr conc.) [3]: 2 ng/mL |
| O=C(NCCc1cccs1)c1ccccc1Sc1ccc2c(/C=C/c3ccccn3)n[nH]c2c1 [35 (hh)] |  |  |  |  | 292 ng·h/mL | 1.7 | Cmin (7 hr conc.) [7]: 5 ng/mL |
| C=CCONC(=O)c1ccccc1Sc1ccc2c(/C=C/c3ccccn3)n[nH]c2c1 [35 (j)] | 9531 | 1.3 | 1328 | 4.5 |  |  | Cmin (7 hr conc.) [3]: 5 ng/mL |
| CC(C)ONC(=O)c1ccccc1Sc1ccc2c(/C=C/c3ccccn3)n[nH]c2c1 [35 (k)] | 2640 | 1.4 | 5529 | 1.4 |  |  |  |
| O=C(NNC(=O)c1ccccc1Sc1ccc2c(/C=C/c3ccccn3)n[nH]c2c1)c1cccs1 [35 (m)] | 226 | 4.0 |  |  | 10 ng·h/mL |  | Cmin (7 hr conc.) (mouse, in vivo, po, 25 mg/kg, 420 min, pH 2.3): 0 ng/mL |
| O=C(NCc1ccncc1)c1ccccc1Sc1ccc2c(/C=C/c3ccccn3)n[nH]c2c1 [35 (p)] |  |  |  |  | 1435 ng·h/mL | 1.3 | Cmin (7 hr conc.) [7]: 5 ng/mL |
| CONC(=O)c1ccccc1Sc1ccc2c(/C=C/c3ccccn3)n[nH]c2c1 [35 (r)] |  |  |  |  | 4261 ng·h/mL | 1.3 |  |
| CCCONC(=O)c1ccccc1Sc1ccc2c(/C=C/c3ccccn3)n[nH]c2c1 [35 (t)] |  |  |  |  | 3199 ng·h/mL | 1.1 |  |

| SMILES | AUCleast [2] [ng·h/mL] | T1/2 [2] [h] | AUCleast [4] [ng·h/mL] | T1/2 [4] [h] | AUCleast [6] | T1/2 [6] [h] | further results |
| --- | --- | --- | --- | --- | --- | --- | --- |
| O=C(NCC1CC1)c1ccccc1Sc1ccc2c(/C=C/c3ccccn3)n[nH]c2c1 [35 (v)] | 4865 | 0.9 | >2946 | 1.0 |  |  |  |
| CCNC(=O)c1ccccc1Sc1ccc2c(/C=C/c3ccccn3)n[nH]c2c1 [35 (x)] | 951 | 3.2 | 3516 | 0.9 |  |  |  |
| O=C(Nc1nccs1)c1ccccc1Sc1ccc2c(/C=C/c3ccccn3)n[nH]c2c1 [35 (y)] | 159 | 1.2 | 58 | 1.2 |  |  | Cmin (7 hr conc.) [5]: 2 ng/mL; Cmin (7 hr conc.) [3]: 1 ng/mL |
| CCOCCNC(=O)c1ccccc1Sc1ccc2c(/C=C/c3ccccn3)n[nH]c2c1 [35 (z)] | 837 | 1.8 | 1001 | 1.6 |  |  |  |
| Cn1ccnc1/C=N/NC(=O)c1ccccc1Sc1ccc2c(/C=C/c3ccccn3)n[nH]c2c1 [36 (a)] |  |  |  |  | 605 ng·h/mL | 1.5 |  |
| CC(C)ONC(=O)c1cccc(F)c1Sc1ccc2c(/C=C/c3ccccn3)n[nH]c2c1 [37 (c)] |  |  |  |  | 2419 ng·h/mL | 1.2 | Cmin (7 hr conc.) [7]: 9 ng/mL |
| CNC(=O)c1ccccc1Nc1ccc2c(/C=C/c3ccccn3)n[nH]c2c1 [39 (a)] |  |  |  |  | > 14848 ng·h/mL | 1.4 |  |
| C#CCNC(=O)c1ccccc1Nc1ccc2c(/C=C/c3ccccn3)n[nH]c2c1 [39 (b)] |  |  |  |  | > 30972 ng·h/mL | 11.8 |  |
| O=C(Nc1cccc(C(=O)c2ccc3c(/C=C/c4ccccn4)n[nH]c3c2)c1)c1ccncc1 [41 (b)] | > 5868 | 4.7 | 759 | 1.1 |  |  | Cmin (7 hr conc.) [3]: 6 ng/mL |
| CC(C)=CC(=O)Nc1cccc(C(=O)c2ccc3c(/C=C/c4ccccn4)n[nH]c3c2)c1 [41 (dd)] |  |  |  |  | 654 ng·h/mL | 0.8 | Cmin (7 hr conc.) [7]: 1 ng/mL |
| C=CCn1nc(C)cc1C(=O)Nc1cc(C(=O)c2ccc3c(/C=C/c4ccccn4)n[nH]c3c2)ccc1C [41 (ff)] |  |  |  |  | 9176 ng·h/mL | 2.0 |  |
| Cc1cc(C(=O)Nc2cccc(C(=O)c3ccc4c(/C=C/c5ccccn5)n[nH]c4c3)c2)n[nH]1 [41 (g)] | 1925 | 0.3 | 508 | 0.7 |  |  | Cmin (7 hr conc.) (mouse, in vivo, ip, 25 mg/kg, 420 min, pH 2.3): 0 ng/mL; Cmin (7 hr conc.) [3]: 1 ng/mL |
| Cc1cnccc1C(=O)Nc1cccc(C(=O)c2ccc3c(/C=C/c4ccccn4)n[nH]c3c2)c1 [41 (j)] |  |  |  |  | 1476 ng·h/mL | 1.3 |  |
| Cc1cc(C(=O)Nc2cc(C(=O)c3ccc4c(/C=C/c5ccccn5)n[nH]c4c3)ccc2C)n(C(C)C)n1 [41 (kk)] |  |  |  |  | 11612 ng·h/mL | 2.0 |  |
| Cc1cc(C(=O)Nc2cccc(C(=O)c3ccc4c(/C=C/c5ccccn5)n[nH]c4c3)c2)on1 [41 (m)] | 1864 | 2.3 | 9 |  |  |  |  |
| CCc1cc(C(=O)Nc2cccc(C(=O)c3ccc4c(/C=C/c5ccccn5)n[nH]c4c3)c2)n(C)n1 [41 (v)] |  |  |  |  | 10949 ng·h/mL | 4.4 |  |
| CC(C)COC(=O)Nc1cccc(C(=O)c2ccc3c(/C=C/c4ccccn4)n[nH]c3c2)c1 [41 (y)] |  |  |  |  |  |  | AUCleast [8]: Blq; Cmax [8]: Blq; Cmin (7 hr conc.) [8]: blq |
| O=C(Nc1cccc(C(=O)c2ccc3c(/C=C/c4ccccn4)n[nH]c3c2)c1)c1ccccc1 [42 (a)] | 19899 | 5.0 | 8384 | 2.0 |  |  |  |
| O=C(Nc1cccc(C(=O)c2ccc3c(-c4nc5ccccc5[nH]4)n[nH]c3c2)c1)c1ccccc1 [42 (b)] | 3207 | 3.0 | 4747 | 3.0 |  |  |  |
| O=C(Nc1cccc(C(=O)c2ccc3c(-c4nc5cccnc5[nH]4)n[nH]c3c2)c1)c1ccccc1 [42 (d)] | 1774 | 1.4 | 46 |  |  |  |  |
| O=C(Nc1cccc(C(=O)c2ccc3c(/C=N/n4cccc4)n[nH]c3c2)c1)c1ccccc1 [45 (b)] | 11361 | 2.0 | 1636 | 3.0 |  |  |  |
| CCn1nc(C)cc1C(=O)Nc1cc(Nc2ccc3c(/C=C/c4ccccn4)n[nH]c3c2)c(F)cc1C [48 (a)] | 27000 |  |  |  | 26636 ng·h/mL |  |  |
